Literature values, collected in US20240325474A1 (priority 2023, published 2024).
pIC50: −log10 of the molar value. In brackets after ≈: the same amount, converted by molar mass.

What was measured:
SARS-COV-2 = details: Calu-3 cells
[1] = test system: Calu-3 lung epithelia cell lines

Question: With `C=C1CC[C@@H]2[C@](C)(CO)[C@H](O)CC[C@@]2(C)[C@@H]1C/C=C1/C(=O)OC[C@H]1O` [andrographolide] as the compound, how does the pIC50 (SARS-COV-2) read?
Answer: 7.47

Question: And the CC50 [1]?
Answer: 58.03 µg/mL (≈ 166 µM)
